Values joined by “and” are separate entries in the source; they are usually repeats but may differ in a detail not shown here. Equal entries are not always repeated. Toxic doses and inconclusive results are not listed. How the source made its calls: active means survival T/C of 150% or more; inactive means T/C below 125% in these data.
Tested on: P388 leukemia ip, CD2F1 mice, survival T/C
Assay: NCI In Vivo Anticancer Drug Screen. Data for tumor model P388 Leukemia (intraperitoneal) in CD2F1 (CDF1) mice
Conditions: endpoint: median survival time, higher = longer survival
Method in brief: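 Mice carrying the transplanted tumor received test compound or vehicle. Survival was recorded in each group, and the value is the treated-group measurement divided by that of the vehicle-treated control group.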

[1] = dose: 50.0 mg/kg/injection, schedule: Q01DX009 (ip), vehicle: Klucel (hydroxypropylcellulose) (HPC)
[2] = dose: 100.0 mg/kg/injection, schedule: Q01DX009 (ip), vehicle: Klucel (hydroxypropylcellulose) (HPC)
[3] = dose: 200.0 mg/kg/injection, schedule: Q01DX009 (ip), vehicle: Klucel (hydroxypropylcellulose) (HPC)
[4] = dose: 50.0 mg/kg/injection, schedule: Q01DX005 (ip), vehicle: saline with Tween-80
[5] = dose: 100.0 mg/kg/injection, schedule: Q01DX005 (ip), vehicle: saline with Tween-80
[6] = dose: 200.0 mg/kg/injection, schedule: Q01DX005 (ip), vehicle: saline with Tween-80
[7] = dose: 60.0 mg/kg/injection, schedule: Q01DX005 (ip), vehicle: saline with Tween-80
[8] = dose: 120.0 mg/kg/injection, schedule: Q01DX005 (ip), vehicle: saline with Tween-80
[9] = dose: 240.0 mg/kg/injection, schedule: Q01DX005 (ip), vehicle: saline with Tween-80

Measured: T/C

CCCCCCCCCCCC[As](CCCCCCCCCCCC)SCC1OC(OC(C)=O)C(OC(C)=O)C(OC(C)=O)C1OC(C)=O (configuration not stated)
inactive: [1] 111 % of control | [2] 104 % of control | [3] 105 % of control

NC(=O)C1CCCN1C(=O)C1CCCN(CCCCCCN2CCCC(C(=O)N3CCCC3C(N)=O)C2)C1 (configuration not stated)
inactive: dose: 60.0 mg/kg/injection, schedule: Q01DX005 (ip), vehicle: saline 105 % of control | dose: 120.0 mg/kg/injection, schedule: Q01DX005 (ip), vehicle: saline 98 % of control

COc1ccc(CCNC(=O)Nc2ccc(C(C)(C)C)cc2)cc1OC
inactive: [4] 101 % of control | [5] 97 % of control | [6] 101 % of control

O=C(NC(Cc1c[nH]c2ccccc12)C(=O)O)C(=O)c1c[nH]c2ccccc12 (configuration not stated)
inactive: [7] 100 % of control | [8] 97 % of control | [9] 90 % of control

CN(C)c1ccc(/C=N/NC(=O)COc2ccccc2)cc1
inactive: dose: 15.0 mg/kg/injection, schedule: Q01DX005 (ip), vehicle: saline with Tween-80 98 % of control | dose: 30.0 mg/kg/injection, schedule: Q01DX005 (ip), vehicle: saline with Tween-80 88 % of control | [7] 88 % of control

CCCCc1c(O)c(N=NC(=O)C[N+](C)(C)C)c2ccccc2c1O
inactive: [4] 104 % of control | [5] 110 % of control | [6] 108 % of control

CC(C)(C)c1cc(C(C)(C)O)c2c(c1)C(C)(C)OS2
inactive: dose: 50.0 mg/kg/injection, schedule: Q04DX003 (ip), vehicle: saline with Tween-80 99 % of control | dose: 100.0 mg/kg/injection, schedule: Q04DX003 (ip), vehicle: saline with Tween-80 106 % of control | dose: 200.0 mg/kg/injection, schedule: Q04DX003 (ip), vehicle: saline with Tween-80 100 % of control

C=C1C(=O)C[C@@H]2CC(C)(C)C[C@]12CC(=O)O
inactive: dose: 2.5 mg/kg/injection, schedule: Q01DX005 (ip), vehicle: water 90 % of control | dose: 5.0 mg/kg/injection, schedule: Q01DX005 (ip), vehicle: water 109 % of control | dose: 10.0 mg/kg/injection, schedule: Q01DX005 (ip), vehicle: water 97 % of control | dose: 20.0 mg/kg/injection, schedule: Q01DX005 (ip), vehicle: water 98 % of control | dose: 40.0 mg/kg/injection, schedule: Q01DX005 (ip), vehicle: water 101 % of control

CCOC(=O)C1=NN(c2ccccc2)C(C)(C(=O)OC)C1 (configuration not stated)
inactive: [7] 98 % of control | [8] 98 % of control | [9] 95 % of control

Nc1ncnc2c1c1c(=O)[nH]cnc1n2C1OC(CO)C(O)C1O (configuration not stated)
inactive: dose: 3.13 mg/kg/injection, schedule: Q01DX009 (ip), vehicle: water 107 % of control | dose: 6.25 mg/kg/injection, schedule: Q01DX009 (ip), vehicle: water 113 % of control | dose: 12.5 mg/kg/injection, schedule: Q01DX009 (ip), vehicle: water 114 % of control | dose: 50.0 mg/kg/injection, schedule: Q01DX009 (ip), vehicle: water 116 % of control

NC(=O)C[n+]1ccccc1
inactive: dose: 50.0 mg/kg/injection, schedule: Q01DX009 (ip), vehicle: saline 101 % of control | dose: 100.0 mg/kg/injection, schedule: Q01DX009 (ip), vehicle: saline 111 % of control | dose: 200.0 mg/kg/injection, schedule: Q01DX009 (ip), vehicle: saline 118 % of control | dose: 400.0 mg/kg/injection, schedule: Q01DX009 (ip), vehicle: saline 112 % of control

CSc1n[nH]c(C2CCC(=O)N2Cc2ccccc2)n1 (configuration not stated)
inactive: [4] 103 % of control | [5] 101 % of control | [6] 100 % of control

CC(=O)OCC1OC(S[As](C)CCO)C(OC(C)=O)C(OC(C)=O)C1OC(C)=O (configuration not stated)
inactive: dose: 12.5 mg/kg/injection, schedule: Q01DX009 (ip), vehicle: Klucel (hydroxypropylcellulose) (HPC) 103 % of control and 109 % of control | dose: 25.0 mg/kg/injection, schedule: Q01DX009 (ip), vehicle: Klucel (hydroxypropylcellulose) (HPC) 102 % of control and 113 % of control | [1] 103 % of control and 117 % of control and 122 % of control | [2] 111 % of control and 116 % of control | [3] 108 % of control

CC1(C)CC(=O)N(CN2CCCCC2)C(=O)C1
inactive: dose: 100.0 mg/kg/injection, schedule: Q04DX002 (ip), vehicle: Klucel (hydroxypropylcellulose) (HPC) 114 % of control | dose: 200.0 mg/kg/injection, schedule: Q04DX002 (ip), vehicle: Klucel (hydroxypropylcellulose) (HPC) 120 % of control

O=C(c1ccccc1)N1C2C=C(c3ccccc3)CC1CC2 (configuration not stated)
inactive: dose: 100.0 mg/kg/injection, schedule: Q04DX003 (ip), vehicle: Klucel (hydroxypropylcellulose) (HPC) 111 % of control | dose: 200.0 mg/kg/injection, schedule: Q04DX003 (ip), vehicle: Klucel (hydroxypropylcellulose) (HPC) 97 % of control | dose: 400.0 mg/kg/injection, schedule: Q04DX003 (ip), vehicle: Klucel (hydroxypropylcellulose) (HPC) 94 % of control

C1=NCCCCCCCN=Cc2ccccc2NCCNc2ccccc21
inactive: dose: 100.0 mg/kg/injection, schedule: Q04DX003 (ip), vehicle: saline 94 % of control | dose: 200.0 mg/kg/injection, schedule: Q04DX003 (ip), vehicle: saline 92 % of control | dose: 400.0 mg/kg/injection, schedule: Q04DX003 (ip), vehicle: saline 108 % of control

CC(=O)Oc1ccccc1C(=O)OC1CC(C)CCC1C(C)C (configuration not stated)
inactive: dose: 12.5 mg/kg/injection, schedule: Q01DX005 (ip), vehicle: Klucel (hydroxypropylcellulose) (HPC) 99 % of control | dose: 25.0 mg/kg/injection, schedule: Q01DX005 (ip), vehicle: Klucel (hydroxypropylcellulose) (HPC) 106 % of control | dose: 50.0 mg/kg/injection, schedule: Q01DX005 (ip), vehicle: Klucel (hydroxypropylcellulose) (HPC) 88 % of control and 94 % of control | dose: 200.0 mg/kg/injection, schedule: Q01DX005 (ip), vehicle: Klucel (hydroxypropylcellulose) (HPC) 103 % of control

CSC(=S)c1ccc(O)c2ccccc12
inactive: dose: 50.0 mg/kg/injection, schedule: Q01DX009 (ip), vehicle: saline with Tween-80 114 % of control | dose: 100.0 mg/kg/injection, schedule: Q01DX009 (ip), vehicle: saline with Tween-80 114 % of control | dose: 200.0 mg/kg/injection, schedule: Q01DX009 (ip), vehicle: saline with Tween-80 105 % of control

CCN(CC)CCOC(=O)c1ccc(NC(=O)COc2ccc3ccccc3c2)cc1
inactive: dose: 25.0 mg/kg/injection, schedule: Q01DX009 (ip), vehicle: other 88 % of control and 97 % of control | dose: 50.0 mg/kg/injection, schedule: Q01DX009 (ip), vehicle: other 88 % of control and 102 % of control | dose: 100.0 mg/kg/injection, schedule: Q01DX009 (ip), vehicle: other 86 % of control and 105 % of control | dose: 200.0 mg/kg/injection, schedule: Q01DX009 (ip), vehicle: other 102 % of control and 97 % of control | dose: 400.0 mg/kg/injection, schedule: Q01DX009 (ip), vehicle: other 100 % of control and 109 % of control

CC(C)(Oc1ccc(Cl)cc1)C(=O)OCCCC(=O)NC1CC(C)(C)N(O)C(C)(C)C1
inactive: dose: 200.0 mg/kg/injection, schedule: Q01DX001 (ip), vehicle: saline 105 % of control | dose: 400.0 mg/kg/injection, schedule: Q01DX001 (ip), vehicle: saline 115 % of control

CCC1(C)CC(C#N)(C#N)C(=O)NC1=O (configuration not stated)
inactive: [7] 100 % of control | [8] 97 % of control | [9] 100 % of control

CCOc1ccccc1N=Nc1c(C)nn(C(=S)S)c1OCC
inactive: dose: 60.0 mg/kg/injection, schedule: Q01DX005 (ip), vehicle: Klucel + Tween-80 97 % of control | dose: 120.0 mg/kg/injection, schedule: Q01DX005 (ip), vehicle: Klucel + Tween-80 95 % of control | dose: 240.0 mg/kg/injection, schedule: Q01DX005 (ip), vehicle: Klucel + Tween-80 100 % of control

— PubChem BioAssay AID330 (DTP/NCI, 2004)
